The text below walks through data of ChEMBL document CHEMBL4043174, “Synthesis, conformational study and antiviral activity of l-like neplanocin derivatives” (Bioorg Med Chem Lett, 2017).

In brackets after ≈: the same amount, converted by molar mass. Activity calls are given as the source filed them. The rule behind the calls is not given here.

In general, EC50 refers to the concentration needed to bring the measured effect to its halfway point. Usually IC50 stands for the point on the concentration scale where inhibition reaches its midpoint. A word on the CC50: it is the concentration at which the toxic effect on the cells reaches its halfway point.

The subject of series [1] is Punta Toro virus. The experiment in a line: Antiviral activity against Punta Toro virus. The format is functional.
For series [2], the system named is Vero. The experiment in a line: (§1) Cytotoxicity against African green monkey Vero cells assessed as reduction in cell viability. The format is cell-based. The note with it: chlorocebus sabaeus, vero.
The subject of series [3] is Dengue virus. The experiment in a line: Antiviral activity against Dengue virus. The format is functional.
Series [4] concerns Zika virus. Put plainly: Antiviral activity against Zika virus. In kind it is functional.
Series [5] concerns Venezuelan equine encephalitis virus. Put plainly: Antiviral activity against Venezuelan equine encephalitis virus. In kind it is functional.
Series [6] has as its system Tacaribe virus. Put plainly: Antiviral activity against Tacaribe virus. The note with it: Mammarenavirus tacaribeense. The format is functional.
The test system of series [7] is Vesicular stomatitis virus. The experiment in a line: Antiviral activity against vesicular stomatitis virus infected in PRK cells assessed as reduction in virus-induced cytopathic effect after 1 to 2 days. The format is functional, cell-based. In general terms: Damage to the host cells serves as the signal in cytopathic effect assays.
The subject of series [8] is unidentified adenovirus. Put plainly: Antiviral activity against Adenovirus. The format is functional.
In series [9] the test system is Vaccinia virus. The experiment in a line: Antiviral activity against vaccinia virus infected in PRK cells assessed as reduction in virus-induced cytopathic effect after 2 to 3 days. The note with it: Orthopoxvirus vaccinia. In kind it is functional, cell-based.
Series [10] relates to Enterovirus C. Put plainly: Antiviral activity against Poliovirus. The format is functional.
For series [11], the system named is Japanese encephalitis virus. The experiment in a line: Antiviral activity against Japanese encepahalitis virus. In kind it is functional.
The test system of series [12] is Measles morbillivirus. The experiment in a line: Antiviral activity against measles virus. In kind it is functional.
The subject of series [13] is Ebolavirus. The experiment in a line: Antiviral activity against Ebolavirus. The format is functional. The note with it: for EC50: Orthoebolavirus.
Series [14] concerns Chikungunya virus. Put plainly: Antiviral activity against Chikungunya virus. In kind it is functional.
In series [15] the test system is Yellow fever virus. Put plainly: Antiviral activity against Yellow fever virus. In kind it is functional.
Series [16] deals with Norovirus. Put plainly: Antiviral activity against Norovirus. In kind it is functional.
Series [17] deals with Usutu virus. Put plainly: Antiviral activity against Usutu virus. In kind it is functional.
Series [18] has as its system West Nile virus. The experiment in a line: Antiviral activity against West Nile virus. The format is functional.
For series [19], the system named is Rift Valley fever virus. Put plainly: Antiviral activity against Rift Valley fever virus. In kind it is functional.
Series [20] concerns Venezuelan equine encephalitis virus. The experiment in a line: Antiviral activity against Venezuelan equine encephalitis virus infected in African green monkey Vero cells. The format is functional.
The nature of series [21]: as §1. In kind it is cell-based. The note with it: chlorocebus sabaeus, Vero cells.
The subject of series [22] is Dengue virus. The experiment in a line: Antiviral activity against Dengue virus infected in African green monkey Vero cells. The format is functional.
In series [23] the test system is Yellow fever virus. The experiment in a line: Antiviral activity against Yellow fever virus infected in African green monkey Vero cells. In kind it is functional.
The subject of series [24] is West Nile virus. Put plainly: Antiviral activity against West Nile virus infected in African green monkey Vero cells. The format is functional.
Series [25] concerns Japanese encephalitis virus. The experiment in a line: Antiviral activity against Japanese encepahalitis virus infected in African green monkey Vero cells. In kind it is functional.
Series [26] has as its system Rift Valley fever virus. Put plainly: Antiviral activity against Rift Valley fever virus infected in African green monkey Vero cells. The format is functional.

Regarding `Nc1nccc2c1ncn2[C@H]1C=C[C@H](O)[C@@H]1O` (relative stereo), the result in series [1], in series [3], in series [4], in series [5], in series [6] and in series [8] was inactive. The outcome in [10], in series [11], in series [12], in [14], in series [15] and in series [17] was inactive. In addition, the outcome in [18] and in series [19] was inactive. Besides, the Activity result in series [2] was “Non-Toxic”. Moreover, the EC50 was 0.2 µg/mL (≈ 0.861 µM) in [7], 0.7 µg/mL (≈ 3.01 µM) in series [9], 29.5 µg/mL (≈ 127 µM) in series [13] and 4.2 µM in series [16].

Regarding `Nc1ncc(Br)c2c1ncn2[C@@H]1[C@@H](O)[C@@H](O)[C@H]2C[C@H]21`, the result in [1], in series [3], in series [4], in series [5], in [6] and in series [8] was inactive. The outcome in [10], in [11], in series [12], in [13], in [14] and in [15] was inactive. Further, the result in series [17], in series [18] and in [19] was inactive. For the same compound, the Activity result in [2] was “Non-Toxic”. The EC50 in series [16] turned out to be 3 µM.

As to `Nc1ncc(Br)c2c1ncn2[C@H]1C=C[C@H](O)[C@@H]1O`, the IC50 worked out at 27 µg/mL (≈ 86.8 µM) in [20]; 7.2 µg/mL (≈ 23.1 µM) in [22]; 32 µg/mL (≈ 103 µM) in series [23]; 32 µg/mL (≈ 103 µM) in series [24]; 32 µg/mL (≈ 103 µM) in series [25]; 31 µg/mL (≈ 99.6 µM) in series [26]. In addition, the outcome in series [1], in series [3], in [4], in [5], in series [6] and in [8] was inactive. In addition, the result in [10], in [11], in series [12], in [14], in [15] and in [17] was inactive. The result in [18] and in [19] was inactive. Moreover, the CC50 in series [21] was in the range of 27 to 32 µg/mL (≈ 86.8 to 103 µM). Further, the EC50 in [13] was 8.3 µg/mL (≈ 26.7 µM); in series [16], 33 µM.

Consider `Nc1nccc2c1ncn2[C@@H]1[C@@H](O)[C@@H](O)[C@H]2C[C@H]21`, for which the outcome in series [1], in series [3], in series [4], in series [5], in series [6] and in series [8] was inactive. Further, the result in series [10], in series [11], in [12], in series [13], in series [14] and in [15] was inactive. The outcome in series [17], in [18] and in [19] was inactive. Besides, in [2], the Activity result is “Non-Toxic”. The same compound showed a half-maximal effective concentration (EC50) in [16] of more than 100 µM.
